“And” between values parts separate entries of the source, which are not always exact repeats. Identical values can stand only once.
Assays:
Assay type in all cases: cell-based
320 non-olfactory GPCRs [1] = target: T1, 320 non-olfactory GPCRs (Homo sapiens, UniProt P35408); conditions: receptor PTGER4; replicate values, Fig_4g
T1 construct: expressed in transfected cells; host or cells: HTLA cells

320 non-olfactory GPCRs [2] = target: T2, 320 non-olfactory GPCRs (Homo sapiens, UniProt P28336); conditions: receptor NMBR; replicate values, Fig_4g
T2 construct: expressed in transfected cells; host or cells: HTLA cells
T2 sequence (P28336 whole entry): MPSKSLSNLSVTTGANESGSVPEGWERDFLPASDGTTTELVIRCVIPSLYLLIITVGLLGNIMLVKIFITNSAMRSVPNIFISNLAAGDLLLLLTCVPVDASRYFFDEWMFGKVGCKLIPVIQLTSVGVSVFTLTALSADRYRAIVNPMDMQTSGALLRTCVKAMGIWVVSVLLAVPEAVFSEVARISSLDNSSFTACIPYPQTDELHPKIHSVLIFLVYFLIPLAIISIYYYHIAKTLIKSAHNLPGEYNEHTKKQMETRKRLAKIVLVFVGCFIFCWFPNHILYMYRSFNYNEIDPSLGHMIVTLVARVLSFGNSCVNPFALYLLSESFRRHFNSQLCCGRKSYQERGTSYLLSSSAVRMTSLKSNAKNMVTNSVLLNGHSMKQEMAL

320 non-olfactory GPCRs [3] = target: T3, 320 non-olfactory GPCRs (Homo sapiens, UniProt P24530)
T3 construct: expressed in transfected cells; host or cells: HTLA cells
T3 sequence (P24530 27-442): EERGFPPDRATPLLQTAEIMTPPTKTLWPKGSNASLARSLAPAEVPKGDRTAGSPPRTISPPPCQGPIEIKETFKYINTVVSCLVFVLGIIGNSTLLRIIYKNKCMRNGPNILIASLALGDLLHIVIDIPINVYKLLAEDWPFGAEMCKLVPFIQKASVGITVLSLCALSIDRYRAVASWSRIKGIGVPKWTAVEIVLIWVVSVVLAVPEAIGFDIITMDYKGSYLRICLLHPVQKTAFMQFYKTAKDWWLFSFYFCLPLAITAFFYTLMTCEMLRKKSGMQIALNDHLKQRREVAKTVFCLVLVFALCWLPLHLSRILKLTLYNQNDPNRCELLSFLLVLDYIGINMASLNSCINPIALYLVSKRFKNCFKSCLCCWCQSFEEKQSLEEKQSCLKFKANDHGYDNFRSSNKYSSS

320 non-olfactory GPCRs [4] = target: T4, 320 non-olfactory GPCRs (Homo sapiens, UniProt Q15077); conditions: receptor P2RY6; replicate values, Fig_4g
T4 construct: expressed in transfected cells; host or cells: HTLA cells
T4 sequence (Q15077 whole entry): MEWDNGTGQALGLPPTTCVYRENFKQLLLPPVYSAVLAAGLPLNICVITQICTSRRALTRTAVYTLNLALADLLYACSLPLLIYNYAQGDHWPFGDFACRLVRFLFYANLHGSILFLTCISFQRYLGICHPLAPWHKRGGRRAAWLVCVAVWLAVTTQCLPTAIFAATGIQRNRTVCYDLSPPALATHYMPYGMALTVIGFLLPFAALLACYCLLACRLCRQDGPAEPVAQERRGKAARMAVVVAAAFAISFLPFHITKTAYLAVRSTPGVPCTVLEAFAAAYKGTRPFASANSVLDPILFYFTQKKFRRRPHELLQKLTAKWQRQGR
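Throughout, for Fold of Basal: compound tested at 1 µM final concentration.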
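Throughout, for GPCRome agonism screen response: fold over basal response of each receptor without drug.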

T1 sequence (P35408 whole entry): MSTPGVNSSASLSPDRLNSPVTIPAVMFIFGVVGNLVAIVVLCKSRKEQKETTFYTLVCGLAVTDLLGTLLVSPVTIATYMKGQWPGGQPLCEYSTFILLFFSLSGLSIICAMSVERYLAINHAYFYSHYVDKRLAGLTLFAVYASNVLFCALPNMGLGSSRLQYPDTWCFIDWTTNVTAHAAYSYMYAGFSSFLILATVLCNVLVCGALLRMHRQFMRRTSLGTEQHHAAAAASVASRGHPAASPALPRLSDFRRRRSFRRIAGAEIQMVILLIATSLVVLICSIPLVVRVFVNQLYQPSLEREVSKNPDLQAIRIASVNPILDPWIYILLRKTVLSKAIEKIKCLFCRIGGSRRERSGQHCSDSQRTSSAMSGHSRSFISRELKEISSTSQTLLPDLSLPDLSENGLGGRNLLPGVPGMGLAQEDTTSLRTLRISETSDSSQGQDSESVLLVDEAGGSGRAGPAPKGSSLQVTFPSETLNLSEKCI

## CCOc1cccc2cc(C(C)NCC3(O)CCCCC3)oc12 (stereo not shown) [O4LE6]
320 non-olfactory GPCRs [1]
  GPCRome agonism screen response: 2.508 and 1.456 and 1.732 and 0.428
320 non-olfactory GPCRs [2]
  GPCRome agonism screen response: 0.2359 and 0.9261 and 0.9727 and 0.7093
320 non-olfactory GPCRs [3]
  Fold of Basal: 0.7302 and 0.8478 and 0.8324 and 1.412
320 non-olfactory GPCRs [4]
  GPCRome agonism screen response: 0.88 and 0.9723 and 0.9546 and 1.27
